Entries after “also recorded” stand apart in the source; their conditions may differ.
What was measured:
Antares = Antares (Oplophorus gracilirostris, UniProt Q9GV45, A31E/A60N/A81I/F95D/I117V/K70R/L54V/L99Q/M102K/N193R/P142E/Q151K/Q38R/Q45L/V71I/Y165I); assay: Enzymatic analysis of Antares and Fz analogs; assay type: biochemical; design: His tag (inferred from purification on HisLink resin); made in house; host or cells: Escherichia coli; conditions: for Relative kcat: relative to Fz
Description: Two milliliters of LB broth with 100 µg ml^–1 ampicillin was inoculated with a single colony of clone ATG-3802 (Antares codon optimized for Escherichia coli) and grown overnight at 37 °C. On the following day, the overnight culture was diluted 1:100 into a flask containing 50 ml of Terrific Broth and 100 µg ml^–1 ampicillin. The sample was grown at 37 °C with shaking (275 r.p.m.) for 4 h. The culture was chilled on ice, and 1% rhamnose was added to induce protein expression. The culture was placed in a 15 °C shaker (275 r.p.m.) and grown for 48 h. Cells were collected by centrifugation and resuspended in 10 ml of 100 mM HEPES (pH 7.5), 150 mM NaCl, 10 mM imidazole and 1 mg ml^–1 lysozyme. The resuspended cells were sonicated on ice (5 s on, 5 s off for 2 min, 12 amplitude). The sample was centrifuged (12,000g for 15 min), and 1 ml of HisLink resin (Promega) was added to the cleared lysate. Samples were incubated at 4 °C on an orbital mixer for 2 h. After incubation, the resin was washed three times with HisLink wash buffer (Promega). After the final wash, the sample was eluted (incubated 3 min with mixing) two times with 1 ml of HisLink elution buffer (Promega). The sample was dialyzed (10-kDa molecular weight cutoff, Thermo Fisher Slide-A-Lyzer) for 24 h in TBS and 50% glycerol.
To quantify luminescence as a function of substrate concentration, substrates were diluted to 30 μM and serially diluted in twofold steps into DPBS with 0.01% BSA in triplicate. Fifty microliters of each substrate dilution was then mixed with 50 μl of a solution of 20 pM Antares protein in DPBS with 0.01% BSA. Luminescence was measured immediately using a GloMax-Multi+ luminometer (Promega). Km and Vmax were then calculated using the Michaelis–Menten non-linear regression function in the program Prism (GraphPad).

[1] = Solubility in aqueous formulation with poloxamer-407 (P-407); assay type: physicochemical
Description: Stock samples of solid formulated Fz analogs were prepared using the following protocol. First, P-407 (Pluronic F127) was placed into a screw-cap glass vial. The polymer was then heated to 75 °C in a water bath until melted. Fz analogs dissolved in ethanol were added to the hot polymer, mixing well with a thin spatula. Additional rinses of Fz analogs in ethanol were added to the hot polymer for quantitative transfer. The solvent was then removed under vacuum. This concentrated sample was diluted with water to make a dispensing mixture of 4–9 mM Fz analogs in water. Next, this aqueous stock was aliquoted into glass vials, frozen and lyophilized overnight to give a yellow cake. For i.p. injection into mice, DPBS (Corning, 21-031-CV) was added to the vial and rocked to create a clear solution.

Antares luciferase = target: T1, Antares luciferase (Oplophorus gracilirostris, UniProt Q9GV45, A31E/A60N/A81I/F95D/I117V/K70R/L54V/L99Q/M102K/N193R/P142E/Q151K/Q38R/Q45L/V71I/Y165I); assay: Bioluminescence imaging of transgenic mice for substrate comparison (brain, Cre-driven Antares); assay type: in vivo, mouse
T1 construct: expressed in transfected cells; host or cells: transgenic mice with CAG-LSL-Antares at the H11 locus, crossed to Cre driver lines (neurons or liver)
Excerpt: Transgenic reporter mice with LSL-CAG-luciferase (Antares, FLuc or AkaLuc) inserted at the H11 locus (H11P) were generated by φC31-mediated recombination in blastocysts[48] by the Stanford Transgenic, Knockout and Tumor Model Center. For substrate comparisons, 2- to 4-month-old transgenic mice doubly hemizygous for a Camk2a-cre (Jackson Laboratory, 005359), Vgat-IRES-cre (Jackson Laboratory), Vglut2-IRES-cre (Jackson Laboratory, 016963) or Alb-cre (Jackson Laboratory, 003574) driver and a CAG-LSL-Antares, CAG-LSL-AkaLuc or CAG-LSL-FLuc reporter were anesthetized by inhalation of isoflurane for 5 min. An electric shaver was used to remove scalp hair in Camk2a-cre, Vglut2-IRES-cre or Vgat-IRES-cre mice or abdominal hair in Alb-cre mice. Nair depilatory cream (Church and Dwight) was then applied to the shaved area for 1 min, and remaining hair was removed with a piece of sterile gauze. The area was then rinsed with DPBS and cleaned with 70% ethanol with a piece of sterile gauze.
For mice expressing Antares, indicated amounts of Fz were dissolved in 480 µl of a PEG-300-based formulation consisting of 10% glycerol, 10% ethanol, 10% hydroxypropylcyclodextrin and 35% PEG-300 in water, or indicated amounts of lyophilized Fz analogs with P-407 vehicle were reconstituted in 150–500 µl of DPBS buffer. For mice expressing FLuc, indicated amounts of D-luciferin were dissolved in PBS. For mice expressing AkaLuc, 3 μmol (1.0 mg) of AkaLumine-HCl (Sigma-Aldrich) was dissolved in 150 μl of 0.9% NaCl. Substrates were then injected into the peritoneal cavity in the left lower quadrant, with the maximum injectable volume at 480 µl. Immediately after substrate injection, bioluminescent images were acquired in an Ami HT bioluminescence imaging system running Aura software version 3.1 or 4.0 (Spectral Instruments Imaging) for 15–30 min at intervals of 1 min. For comparing substrates at 1.3 µmol, the following imager settings were used: emission filter open, field of view of 25 cm, f-stop of 1.2, binning of 2 × 2 and exposure time of 2 s. For comparison with >1.3-µmol substrates, the following settings were used: emission filter open, field of view of 25 cm, f-stop of 1.2, binning of 1 × 1 and exposure time of 1 s. Pseudocolor images and intensity scale bars were generated with Aura software. Integrated luminescence was quantified using the Fiji version of the ImageJ program (NIH)[49], with further statistical analysis performed in GraphPad Prism (version 9.0.0).

Sequence of Antares (Q9GV45 other isoform, or with tags, fused parts or gaps with the stated changes): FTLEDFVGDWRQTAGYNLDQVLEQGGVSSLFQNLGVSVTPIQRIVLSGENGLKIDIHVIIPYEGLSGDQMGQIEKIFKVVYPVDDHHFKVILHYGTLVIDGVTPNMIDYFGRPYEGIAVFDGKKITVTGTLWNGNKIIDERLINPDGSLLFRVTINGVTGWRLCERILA
T1 sequence (Q9GV45 other isoform, or with tags, fused parts or gaps with the stated changes): as above

Compound	Km (Antares)	Relative kcat (Antares)	solubilization of 4.2 µmol in P-407 formulation ([1]; 4.2 µmol)	brain brightness relative to Fz (Antares luciferase; 1.3 µmol i.p., Antares driven by Vglut2-IRES-cre or Camk2a-cre, listed as CFz)	peak light production in the brain relative to Fz (Antares luciferase; 1.3 μmol i.p., CAG-LSL-Antares x Vgat-IRES-cre)	brain bioluminescence of 4.2 µmol dose relative to 1.3-μmol dose (Antares luciferase; 4.2 µmol CFz with 20 mg P-407, i.p.)	peak brain signal relative to AkaLuc with AkaLumine (Antares luciferase; Antares with 1.3 µmol CFz vs AkaLuc with 3.0 µmol AkaLumine, i.p., Vgat-cre or Camk2a-cre double hemizygotes, listed as CFz)	kinetics of brain signal relative to AkaLuc–AkaLumine (Antares luciferase; Antares–CFz)	signal from the brain relative to D-luciferin with firefly luciferase (Antares luciferase; CFz paired with Antares)	solubility of 1.3 μmol in P-407 formulation ([1]; 1.3 μmol)	brain signal distribution (Antares luciferase; Antares driven by Camk2a-cre)	brain signal distribution (Antares luciferase; i.p., CAG-LSL-Antares x Vgat-IRES-cre mice)
O=c1c(Cc2ccco2)nc2c(Cc3ccccc3)[nH]c(-c3cccc(F)c3F)cn1-2 [compound 6, cephalofurimazine]	470 nM	1.33	a small amount of CFz residue already remained with 20 mg of P-407 but not 30 mg	at least 2.5 fold	significantly brighter	6.5 fold	matches AkaLuc–AkaLumine/TokeOni in brightness; also recorded: comparable peak signal	rise and decay more quickly	greater than 20 fold	–	–	–
O=c1c(Cc2ccco2)nc2c(Cc3ccccc3)[nH]c(-c3ccccc3)cn1-2 [Fz, furimazine, reference compound]	380 nM	1.0	–	–	–	–	–	–	–	not soluble in P-407	expected forebrain-enriched signal	signal from both the forebrain and hindbrain
